Assay results reported in PMC10671498, “Antiproliferative and Cytotoxic Properties of Propynoyl Betulin Derivatives against Human Ovarian Cancer Cells: In Vitro Studies” (International Journal of Molecular Sciences, 2023).
Where two headings read alike, the source gives them in different places.

Key:
[1] = test system: OVCAR-3 cells; assay: SRB cell proliferation assay, OVCAR-3; assay type: cell-based, human; settings: for IC50: Homo sapiens; for concentration at which antiproliferative activity (decrease in the number of cells) was evident: OVCAR-3, SRB assay, 0.1–30 µM
Experimental: OVCAR-3 cells (ATCC No. HTB-161™) were cultured in RPMI-1640 medium containing HEPES buffer (2.383 g/L), sodium bicarbonate (1.5 g/L), sodium pyruvate (0.11 g/L) supplemented with 20% fetal bovine serum, 10 µg/mL bovine insulin, 100 U/mL penicillin, and 100 μg/mL streptomycin (all from Sigma Aldrich).
(§1) Betulin 1 and its derivatives were dissolved in dimethyl sulfoxide (DMSO; Sigma Aldrich) as a 15 mM stock solution. Working solutions were prepared through the dilution of stock solutions with culture medium. The final DMSO concentration in culture media was adjusted to 0.2%. The effect of tested compounds on the proliferation of SK-OV-3 and OVCAR-3 cells was measured using the In Vitro Toxicology Assay Kit, Sulforhodamine B based (Sigma Aldrich). Cells were seeded in 96-well plates (Greiner Bio-One, Kremsmünster, Austria) at an initial density of 3 × 10^3 cells per well in 200 µL of culture medium. After 24 h of incubation, betulin 1 and its derivatives at a concentration range of 0.1 μM to 30 μM were added to the wells. Control cultures were treated with vehicle alone (0.2% DMSO). The incubation periods for cells with test compounds were 1 day, 3 days, and 5 days. After appropriate incubation periods, culture media were removed, and cells were fixed in 10% trichloroacetic acid solution for 60 min at 4 °C. After fixation, the TCA solution was removed, and the plates were washed three times with deionized water (300 μL/well) and dried. At the next step, cells were stained with 0.4% sulforhodamine B for 30 min. The excess dye was removed by washing three times with 1% (vol/vol) acetic acid. The protein-bound dye was dissolved in 200 μL 10 mM Tris base solution. Absorbance was measured at 570 nm and 690 nm (reference wavelength) using the MRX Revelation plate reader (Dynex Technologies, Chantilly, VA, USA).
(§2) GraphPad Prism 10.0.2 (GraphPad Software Inc., San Diego, CA, USA) software was used for calculations and the statistical analysis of the IC50 values (Table 1). IC50 was determined by using the “nonlinear regression” mode, and the “log(inhibitor) vs. normalised response—Variable slope” equation was chosen in GraphPad Prism software for calculations. The obtained data were normalized to run from 100% down to 0%, and logarithms of concentration were used. Graphs (Figure 2, Figure 3, Figure 4, Figure 5 and Figure 8, and Supplementary Figure S1) were also prepared using this software. In the case of the lack of normal distribution or homogeneity of variances, the remaining results were analyzed using a non-parametric Kruskal–Wallis test with multiple comparisons. Post hoc analysis was performed with the non-parametric equivalent of Tukey’s test. A p value of <0.05 was considered statistically significant. Otherwise, a one-way ANOVA followed by a Tukey’s post hoc test was applied. t-tests was used to perform pairwise comparisons between group means. Analysis was performed using Statistica 13.1 software (StatSoft, Tulsa, OK, USA).

[2] = test system: SK-OV-3 cells; assay: SRB cell proliferation assay, SK-OV-3; assay type: cell-based, human; settings: for IC50: Homo sapiens; for concentration at which antiproliferative activity (decrease in the number of cells) was evident: SK-OV-3, SRB assay, 0.1–30 µM
Experimental: This study used ovarian cancer cell lines, which are part of the panel of cell lines used as part of the NCI-60 Human Cell Lines Screen program, characterized by overexpression of the c-erbB2/neu (HER2) receptor [62, 63]. The human ovarian cancer cell lines (SK-OV-3 and OVCAR-3) were purchased from the American Type Culture Collection (ATCC®, Manassas, Virginia, USA). SK-OV-3 cells (ATCC No. HTB-77™) were cultured in McCoy’s 5A medium containing D-glucose (3 g/L), L-glutamine (0.219 g/L), and sodium bicarbonate (2.2 g/L) supplemented with 10% fetal bovine serum, 10 mM HEPES (pH 7.3–7.5), 100 U/mL penicillin, and 100 μg/mL streptomycin (all from Sigma Aldrich).
as §1, §2

[3] = test system: human melanoma cell line C32; set-up: method as in PMID 28100848; settings: C32, 3 μM; cited from earlier work
[4] = test system: human melanoma cell line A2058; set-up: method as in PMID 28100848; settings: A2058, 3 μM; cited from earlier work
[5] = test system: 18Co normal myofibroblasts; assay: SRB cell proliferation assay, 18Co normal myofibroblasts; assay type: cell-based
Experimental: Next, 18Co cells (ATCC No. CRL-1459™) were cultured in MEM medium containing HEPES buffer, 10% fetal bovine serum, 100 U/mL penicillin, and 100 μg/mL streptomycin (all from Sigma Aldrich).
as §1, §2

[6] = test system: SK-OV-3 cells; assay: TMRM analysis of mitochondrial membrane potential; assay type: cell-based, human; settings: SK-OV-3, 3 h, 30 µM
Experimental: Tetramethylrhodamine methyl ester (Sigma Aldrich) was used for the assessment of changes in the transmembrane potential of mitochondria. TMRM is a fluorescent cationic dye accumulating in mitochondria in a potential-dependent manner. Cell cultures were prepared as described above for acridine orange staining. Cells were exposed to test solutions for 3 h, and then TMRM was added (final concentration 100 nM) followed by incubation for 30 min in the CO2 incubator. Prior to observation, the plates were centrifuged (250× g, 5 min), and the medium was changed to PBS. The cells were analyzed under the Nikon Eclipse TS-100F microscope and photographed.

[7] = test system: SK-OV-3 cells; assay: DNA fragmentation assay (Cell Death Detection ELISA, cytoplasmic fraction), SK-OV-3; assay type: cell-based, human; settings: SK-OV-3, 24 h, 3, 10, 30 µM
Experimental: (§3) Fragmentation of genomic DNA was determined by means of the Cell Death Detection ELISAPLUS kit (Roche, Basel, Switzerland). This method rests on the immunoenzymatic detection of DNA–histone complexes in the cytoplasmic cell fraction or cell culture supernatants. Cells were plated and cultured in 96-well plates (Greiner Bio-One) at the initial density of 5 × 10^3 cells per well in 100 µL of culture medium. Cells were allowed to attach and grow for 1 day prior to the addition of test reagents. Then, the media were replaced with the working solutions (3 µM, 10 µM, 30 µM), and cells were exposed to compounds 2–6 for 24 h. In some cases, 5 µM cyclosporin A (CsA, an inhibitor of the mitochondrial permeability transition) was added to the cells 30 min before treatment with the betulin derivative. Subsequently, cells were incubated concomitantly with both compounds. After a 24 h incubation period, plates were centrifuged (200× g; 10 min), media were removed, and cells were lysed for 30 min at room temperature. At the next step, the lysates were again spun (200× g; 10 min), and 20 µL of supernatants (cytoplasmic fractions) was moved to the new 96-well streptavidin-coated plate. In one experiment, the presence of mono- and oligonucleosomes was determined in 20 µL samples of centrifuged culture supernatants (media) to detect the permeability of plasma membrane (considered as an indicator of cell necrosis). Then, the sandwich ELISA assay was fulfilled according to the manufacturer’s protocol. Absorbance was measured at 405 nm and 490 nm (reference wavelength), and the enrichment factor of the cytoplasmic (or supernatant) fraction in mono- and oligonucleosomes was calculated according to the formula: EF = absorbance of sample cells/absorbance of control cells.
(§4) A high EF index in the cytoplasmic fraction (resulting from DNA fragmentation while maintaining the tightness of cell membranes) is a typical indicator of the relatively early stage of apoptosis.

[8] = test system: OVCAR-3 cells; assay: DNA fragmentation assay (Cell Death Detection ELISA, cytoplasmic fraction), OVCAR-3; assay type: cell-based, human; settings: OVCAR-3, 24 h, 3, 10, 30 µM, among the betulin derivatives
Experimental: as §3, §4

[9] = test system: OVCAR-3 cells; assay: LDH release assay, OVCAR-3; assay type: cell-based, human; settings: OVCAR-3, 24 h
Experimental: (§5) In order to evaluate the cytotoxic effect, the release of LDH into the culture medium using the In Vitro Toxicology Assay Kit, Lactic Dehydrogenase Based (TOX7; Sigma Aldrich) was assessed. SK-OV-3 and OVCAR-3 cells were plated and cultured in 96-well plates (Greiner Bio-One) at the initial density of 5 × 10^3 cells per well in 100 µL of culture medium. The density of the cells was determined in the same manner as in the SRB assay. After 24 h, the media were replaced with the working solutions, which contained appropriate test compounds at concentrations of 3 μM, 10 μM, 30 μM, and control medium (0.2% DMSO). Cells were exposed to the test substances for 24 h. The background control comprised wells without cells with only control medium. To determine the maximal LDH release (high control), half of the control cultures were treated with lysis buffer. Wells with untreated cells were used as the low control of the assay. LDH activity in media was assessed according to the manufacturer’s protocol. The absorbance was measured at wavelengths of 490 nm and 690 nm (background), and the percentage of released enzyme was calculated for cells growing in the presence of compounds according to the formula:Cytotoxicity [%] = [(AT − AL)/(AH − AL)] × 100 where AT is the absorbance of treated wells; AL is low control; and AH is high control (maximal LDH release).
(§6) Cytotoxicity was expressed as a percentage of the released LDH calculated according to the difference between the absorbance of the treated and low control wells divided by the difference between the absorbance of the high control and low control wells.

[10] = test system: SK-OV-3 cells; assay: LDH release assay, SK-OV-3; assay type: cell-based, human; settings: SK-OV-3, 24 h, all concentrations (3, 10, 30 μM)
Experimental: as §5, §6

[11] = 72 h, OVCAR-3, 3 days treatment, SRB assay, read-out: IC50
[12] = 120 h, OVCAR-3, 5 days treatment, SRB assay, read-out: IC50
[13] = 72 h, SK-OV-3, 3 days treatment, SRB assay, read-out: IC50
[14] = 120 h, SK-OV-3, 5 days treatment, SRB assay, read-out: IC50
[15] = 18Co, 3 days treatment, Neg: negative in the concentration used
[16] = 18Co, 5 days treatment, Neg: negative in the concentration used

| Structure (SMILES) | IC50 [1, 11] [nM] | IC50 [1, 12] [nM] | concentration at which antiproliferative activity (decrease in the number of cells) was evident [1] [µM] | IC50 [2, 13] [nM] | IC50 [2, 14] [nM] | concentration at which antiproliferative activity (decrease in the number of cells) was evident [2] [µM] | IC50 [5, 15] | IC50 [5, 16] | IC50 ([1]; OVCAR-3, 72 h) [nM] | IC50 ([1]; OVCAR-3, 120 h) [nM] | IC50 ([2]; SK-OV-3, 72 h) [nM] | IC50 ([2]; SK-OV-3, 120 h) [nM] | also measured |
| --- | --- | --- | --- | --- | --- | --- | --- | --- | --- | --- | --- | --- | --- |
| C#CC(=O)OC[C@]12CC[C@@H](C(=C)C)[C@@H]1[C@H]1CC[C@@H]3[C@@]4(C)CC[C@H](O)C(C)(C)[C@@H]4CC[C@@]3(C)[C@]1(C)CC2 [Compound 2, 28-O-propynoylbetulin] | 160 | 190 | ≥ 0.3 | 180 | 200 | ≥ 0.3 | Neg | Neg |  |  |  |  | inhibition of proliferation [3]: strong inhibition; inhibition of proliferation [4]: strong inhibition; mitochondrial membrane potential (TMRM fluorescence) [6]: reduced the mitochondrial membrane potential; DNA fragmentation (enrichment factor, internucleosomal DNA fragments) [7]: moderate increases |
| C#CC(=O)O[C@H]1CC[C@@]2(C)C(CC[C@]3(C)C2CCC2C4[C@H](C(=C)C)CC[C@]4(COP(=O)(OCC)OCC)CC[C@]23C)C1(C)C (stereo partly shown) [Compound 4, 28-O-diethoxyphosphoryl-3-O-propynoylbetulin] |  |  | > 3 |  |  |  |  |  | 1880 | 1450 | 1080 | 1330 | DNA fragmentation (enrichment factor) [8]: greatest effect; cytotoxicity (released LDH), loss of cell membrane integrity ([9]; 10 μM and 30 μM): loss of cell membrane integrity was also confirmed; IC50 ([5]; 72 h): 9470 nM; IC50 ([5]; 120 h): 23700 nM |
| C#CC(=O)OC[C@]12CC[C@@H](C(=C)COP(=O)(OCC)OCC)C1C1CCC3[C@@]4(C)CC[C@H](O)C(C)(C)C4CC[C@@]3(C)[C@]1(C)CC2 (stereo partly shown) [Compound 5, 30-diethoxyphosphoryloxy-28-O-propynoylbetulin] |  |  | 1 |  |  | 1 | Neg | Neg | 540 | 600 | 280 | 290 | cytotoxicity (released LDH) ([9]; all concentrations (3, 10, 30 μM)): significant cytotoxic activity; cytotoxicity (released LDH) [10]: strong cytotoxic effect |
| CC(=O)O[C@H]1C(=O)[C@@]2(C)[C@H]([C@H](OC(=O)c3ccccc3)[C@]3(O)C[C@H](OC(=O)[C@H](O)[C@@H](NC(=O)c4ccccc4)c4ccccc4)C(C)=C1C3(C)C)[C@]1(OC(C)=O)CO[C@@H]1C[C@@H]2O [PTX, Paclitaxel, reference compound] | 4.49 | 2.97 |  | 4.39 | 5.65 |  | Neg |  |  |  |  |  | IC50 ([5]; 120 h, 18Co, 5 days treatment, Neg: negative in the concentration used, read-out: IC50): 14.8 nM |
